Experimental data taken from patent US11712434B2, “Compound having anti-cancer effect, and preparation method therefor and use thereof” (3D MEDICINES (BEIJING) CO., LTD., priority 2016, dated 2023).

What was measured:
Experiment in all cases: Cell proliferation assay (Alamar Blue)
Assay type in all cases: cell-based
[1] = tested on: MDA-MB-231; settings: MDA-MB-231 tumor cell line, 6 days culture
Procedure: (§1) 1. Instruments and Materials • Thermo 311 CO2 incubator; Haier biosafety cabinet; Molecular Devices microplate reader; Xiangyi brand L530 desktop low speed centrifuge; Olympus IX51 inverted fluorescence microscope, DMEM, RPMI 1640, MEM, DMEM/F12 1:1 medium, Fetal bovine serum, 0.25% trypsin solution, phosphate buffer (Thermo Fisher Shanghai Co., Ltd.); sigma dimethyl sulfoxide (DMSO), resazurin; 54 commercial tumor cell lines (including 26 liver cancer cell lines). Experimental drugs: compounds 1-12 and active drug Linifanib; chemotherapeutic drug Doxorubicin (HY-15142; Shanghai Qianyuan Biomedical Technology Co., Ltd.).
(§2) 2. Experimental Methods • 2.1 Cultivation of Different Cell Lines • 54 cell lines were cultured in a culture medium containing fetal bovine serum and placed in a 5% CO2 incubator at 37° C. for incubation. The cells were all grown in an adherent state, and the growth was observed under an inverted microscope, and subculture was performed when the cell confluence rate reached 80%-90%. The proportion and quantity of passage were determined by experimental needs. The ratio of subculture of this cell line was generally 1:2^˜1:3. • 2.2 Inhibition Effect on the Proliferation of Different Tumor Cell Lines • Cell test: 54 cell lines in logarithmic growth phase were inoculated in 96-well culture plates at 500^˜1×10^4/well (the optimal seeding density of each cell line was determined in pre-experiment), After incubating at 37° C. for 4 h in a 5% CO2 humidification incubator, added 10 μL of compounds 1-12 or Linifanib to each well, and tested 9 drug concentration gradients for each compound (diluted from the highest concentration of the test by 3.16 times). The solubility of each compound was different at a starting concentration of 100 or 30 μM, respectively. The QC reference compound Doxorubicin was added simultaneously to each cell line test, and the final drug concentrations were 10, 3.16, 1, 0.31, 0.1, 0.03, 0.01, 0.003, and 0.001 μM, respectively. In addition, a positive control group (100% inhibition) and a negative control group (0% inhibition) were set at the same time. The drug group was repeated for 2 wells per concentration, and the positive control group and the negative control group were repeated for 6 wells. After the culture was continued for 6 days in the incubator, AlamarBlue test operation was followed; • AlamarBlue test procedure: Incubated with 10 μL of AlamarBlue reagent per well for 1-4 h, shook for 1-2 min, MD microplate reader EX: 560 nm, EM: 590 nm wavelength to measure fluorescence, recorded the results, calculated the cell inhibition rate of the compound of the invention. Cell inhibition rate (%)=(A0% inhibition−A administration)/(A0% inhibition−A100% inhibition)×100%, and then using the method of nonlinear regression using GraphPad Prism 5.0 or MATILAB software (usually using four parameters) to graph and obtain a drug dose response curve to obtain an IC50 value of the compound of the present invention acting on a cancer cell line.

[2] = tested on: SNU475; settings: SNU475 liver cancer cell line, 6 days culture
Procedure: as §1, §2

[3] = tested on: NCI-H2170; settings: NCI-H2170 tumor cell line, 6 days culture
Procedure: as §1, §2

[4] = tested on: SNU449; settings: SNU449 liver cancer cell line, 6 days culture
Procedure: as §1, §2

[5] = tested on: TE-15; settings: TE-15 tumor cell line, 6 days culture
Procedure: as §1, §2

[6] = tested on: SNU886; settings: SNU886 liver cancer cell line, 6 days culture
Procedure: as §1, §2

[7] = tested on: JHH4; settings: JHH4 liver cancer cell line, 6 days culture
Procedure: as §1, §2

[8] = tested on: DLD1; settings: DLD1 tumor cell line, 6 days culture
Procedure: as §1, §2

[9] = tested on: JHH5; settings: JHH5 liver cancer cell line, 6 days culture
Procedure: as §1, §2

[10] = tested on: HT1080; settings: HT1080 tumor cell line, 6 days culture
Procedure: as §1, §2

[11] = tested on: T.T; settings: T.T tumor cell line, 6 days culture
Procedure: as §1, §2

[12] = tested on: JHH7; settings: JHH7 liver cancer cell line, 6 days culture
Procedure: as §1, §2

[13] = tested on: HuTu80; settings: HuTu80 tumor cell line, 6 days culture
Procedure: as §1, §2

[14] = tested on: SK-HEP-1; settings: SK-HEP-1 liver cancer cell line, 6 days culture
Procedure: as §1, §2

[15] = tested on: K562; settings: K562 tumor cell line, 6 days culture
Procedure: as §1, §2

[16] = tested on: HUH6; settings: HUH6 liver cancer cell line, 6 days culture
Procedure: as §1, §2

[17] = tested on: KM12; settings: KM12 tumor cell line, 6 days culture
Procedure: as §1, §2

[18] = tested on: MG63; settings: MG63 tumor cell line, 6 days culture
Procedure: as §1, §2

[19] = tested on: SNU423; settings: SNU423 liver cancer cell line, 6 days culture
Procedure: as §1, §2

[20] = tested on: HLE; settings: HLE liver cancer cell line, 6 days culture
Procedure: as §1, §2

[21] = tested on: JHH2; settings: JHH2 liver cancer cell line, 6 days culture
Procedure: as §1, §2

[22] = tested on: JHH1; settings: JHH1 liver cancer cell line, 6 days culture
Procedure: as §1, §2

[23] = tested on: SNU761; settings: SNU761 liver cancer cell line, 6 days culture
Procedure: as §1, §2

[24] = tested on: AN3CA; settings: AN3CA tumor cell line, 6 days culture
Procedure: as §1, §2

[25] = tested on: HT55; settings: HT55 tumor cell line, 6 days culture
Procedure: as §1, §2

[26] = tested on: MDA-MB-435S; settings: MDA-MB-435S tumor cell line, 6 days culture
Procedure: as §1, §2

[27] = tested on: SNU354; settings: SNU354 liver cancer cell line, 6 days culture
Procedure: as §1, §2

[28] = tested on: TE-6; settings: TE-6 tumor cell line, 6 days culture
Procedure: as §1, §2

`Cc1ccc(F)c(NC(=O)Nc2ccc(-c3cccc4[nH]nc(NC(=O)CCCCCCCCCCCNC(=O)C[C@H](N)C(=O)N[C@@H](CCC(=O)N[C@@H](CCC(=O)N[C@@H](CCC(=O)N[C@@H](CCC(=O)O)C(=O)O)C(=O)O)C(=O)O)C(=O)O)c34)cc2)c1` [Compound 8] was tested, and the IC50 ([1]; Homo sapiens, 144 h) was over 100 µM, the IC50 ([2]; Homo sapiens, SNU-475, 144 h) was over 100 µM and the IC50 ([3]; Homo sapiens, 144 h) was 75.3 µM. The IC50 ([4]; Homo sapiens, SNU-449, 144 h) was over 100 µM, the IC50 ([5]; Homo sapiens, 144 h) was over 100 µM and the IC50 ([6]; SNU-886, 144 h) was over 100 µM. The IC50 ([7]; JHH-4, 144 h) was over 100 µM, the IC50 ([8]; Homo sapiens, DLD-1, 144 h) was over 100 µM and the IC50 ([9]; 144 h) was over 100 µM. The IC50 ([10]; Homo sapiens, HT-1080, 144 h) was over 100 µM, the IC50 ([11]; Homo sapiens, TT, 144 h) was over 100 µM and the IC50 ([12]; 144 h) was 94.9 µM. For the same compound, the IC50 ([13]; Homo sapiens, 144 h) was 50.6 µM, the IC50 ([14]; Homo sapiens, SK-HEP1, 144 h) was over 100 µM and the IC50 ([15]; Homo sapiens, 144 h) was over 100 µM. The IC50 ([16]; Homo sapiens, HuH-6, 144 h) was over 100 µM, the IC50 ([17]; Homo sapiens, 144 h) was over 100 µM and the IC50 ([18]; Homo sapiens, MG-63, 144 h) was over 100 µM. For the same compound, the IC50 ([19]; Homo sapiens, SNU-423, 144 h) was over 100 µM, the IC50 ([20]; Homo sapiens, 144 h) was over 100 µM and the IC50 ([21]; JHH-2, 144 h) was over 100 µM. The IC50 ([22]; 144 h) was over 100 µM, the IC50 ([23]; 144 h) was over 100 µM and the IC50 ([24]; Homo sapiens, AN3-CA, 144 h) was 5.68 µM. It also gave an IC50 ([25]; Homo sapiens, 144 h) of over 100 µM, an IC50 ([26]; Homo sapiens, 144 h) of over 100 µM and an IC50 ([27]; Homo sapiens, SNU-354, 144 h) of over 100 µM. It also gave an IC50 ([28]; Homo sapiens, 144 h) of over 100 µM.

For `Cc1ccc(F)c(NC(=O)Nc2ccc(-c3cccc4[nH]nc(NC(=O)CCCCCCCCCCCNC(=O)C[C@H](N)C(=O)N[C@@H](CCC(=O)N[C@@H](CCC(=O)N[C@@H](CCC(=O)N[C@@H](CCC(=O)N[C@@H](CCC(=O)N[C@@H](CCC(=O)N[C@@H](CCC(=O)N[C@@H](CCC(=O)N[C@@H](CCC(=O)O)C(=O)O)C(=O)O)C(=O)O)C(=O)O)C(=O)O)C(=O)O)C(=O)O)C(=O)O)C(=O)O)c34)cc2)c1` [Compound 9], the IC50 [1] was over 100 µM, the IC50 [2] was over 100 µM and the IC50 [3] was over 100 µM. The IC50 [4] was over 100 µM, the IC50 [5] was over 100 µM and the IC50 [6] was over 100 µM. It also gave an IC50 [7] of over 100 µM, an IC50 [8] of over 100 µM and an IC50 [9] of over 100 µM. The IC50 [10] was over 100 µM, the IC50 [11] was over 100 µM and the IC50 [12] was over 100 µM. For the same compound, the IC50 [13] was 90.4 µM, the IC50 [14] was over 100 µM and the IC50 [15] was over 100 µM. For the same compound, the IC50 [16] was over 100 µM, the IC50 [17] was over 100 µM and the IC50 [18] was over 100 µM. It also gave an IC50 [19] of over 100 µM, an IC50 [20] of over 100 µM and an IC50 [21] of over 100 µM. It also gave an IC50 [22] of over 100 µM, an IC50 [23] of over 100 µM and an IC50 [24] of 10.3 µM. For the same compound, the IC50 [25] was over 100 µM, the IC50 [26] was over 100 µM and the IC50 [27] was over 100 µM. It also gave an IC50 [28] of over 100 µM.
